One series has as its system AR42J cells. The following applies: 1 nM CI-988; gastrin 1 nM; after 96 hours of treatment; cited from earlier work.
The test system of a further series is pancreatic tumor. Nature of the series: In vivo pancreatic tumor weight. Here is the method: This second part of the example depicts cell proliferation of human pancreatic cell lines, PANC-1, BxPC3 and PAN-1 using a tetrazolium-based combined with anti-gastrin G17 antibodies induced by G17DT (10-500 μg/ml). The G17DT elicited antibodies are active against both serum-associated and tumor-secreted, proliferative forms of gastrin. The PAN-1 cell were administered at clinically reflective doses.
In vivo G17DT alone inhibited basal pancreatic tumor weight by 33% (p=0.016, ANOVA) compared to 38% for Gemcitabine (p=0.004, ANOVA). When combined the agents inhibited tumor weight by 55% which was significant from G17DT alone (p=0.025). Thus the immunological agent G17DT may promote the therapeutic efficacy of Gemcitabine.

For series [1] the following is noted: after IV administration; cited from earlier work.
The conditions of series [2]: in vivo; cited from earlier work.
The conditions of series [3]: in vivo; cited from earlier work. The source holds these as a separate data set.
For series [4], the system named is hormone-refractory prostate cancer. The following applies: 75 mg/m^2 every 21 days, cited from earlier work.
The test system of series [5] is gastrin-sensitive mouse colon tumor, MC26. The conditions noted are these: xenograft mice bearing MC26; 25 days in control animals; cited from earlier work.

Each structure is given as a SMILES string. Where a name gives a salt, the structure may show the parent alone.

On to `C[C@](Cc1c[nH]c2ccccc12)(NC(=O)OC1[C@H]2C[C@@H]3C[C@@H](C[C@H]1C3)C2)C(=O)NC[C@H](NC(=O)CCC(=O)O)c1ccccc1` (stereo partly drawn) [CI-988], for which the “inhibition of proliferation of gastrin-stimulated AR42J cells” value in the series on AR42J cells is “about 47%”.

Regarding `Nc1ccn([C@@H]2O[C@H](CO)[C@@H](O)C2(F)F)c(=O)n1` [Gemcitabine, 2′, 2′, difluorodeoxycytidine], the “inhibition of basal pancreatic tumor weight” value with pancreatic tumor was determined as 38%. For the same compound, the “excreted unchanged as gemcitabine” value in series [1] is on record as 5%. For the same compound, in series [2], the cumulative toxicity entry was “no evidence of cumulative toxicity” and the overall toxicity result is on record as “moderate”.

For the compound `CCc1c2c(nc3ccc(OC(=O)N4CCC(N5CCCCC5)CC4)cc13)-c1cc3c(c(=O)n1C2)COC(=O)[C@]3(O)CC` [Irinotecan, (S)-4,1-diethyl-3,4,12,14-tetrahydro-4-hydroxy-3,14-dioxi-[H-pyrano[3′,4′:67]-indolizino[1,2-b]quinolin-9-yl-[1,4′-bipiperidine]-1′-carboxylate, monohydrochloride, trihydrate], in series [3], the G1 adverse effects entry was “early and late diarrhea”; the “adverse effects in addition to the G1 manifestations” value was “myelosuppresion and hypersensitivity reactions”.

Turning to `CC(=O)O[C@@]12CO[C@@H]1C[C@H](O)[C@@]1(C)C(=O)[C@H](O)C3=C(C)[C@@H](OC(=O)[C@H](O)[C@@H](NC(=O)OC(C)(C)C)c4ccccc4)C[C@@](O)([C@@H](OC(=O)c4ccccc4)[C@H]21)C3(C)C` [docetaxel], the median overall survival in series [4] was 27 months. The “patients with response (more than 40% PSA decline and more than 50% reduction of bi-dimensional cross-products)” value in series [4] (including one complete response) is on record as 17 of the 35. The “median duration of responses” value in series [4] (range 2 to 24 months) is given as “nine”. Moreover, in series [4] (two deaths during the study), the toxicity entry is “remained tolerable throughout the treatment”.

As for `CCCN(CCC)C(=O)C(CCC(=O)O)NC(=O)c1ccccc1` (stereo not drawn) [proglumide], the survival in series [5] is listed as 39 days.

Values taken from patent US8388966B2, “Combination treatment of pancreatic cancer” (Cancer Advances, Inc., priority 2001, dated 2013).
